Reference: patent US9776979B2, “EBI2 modulators” (Sanford-Burnham Medical Research Institute, priority 2013, dated 2017)
Where two headings read alike, the source gives them in different places.

Target: EBI2 (Homo sapiens, UniProt P32249)
Assay: Cell-based luminescent assay (EBI2 modulation)
Procedure, shortened: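 Cells plated overnight at 37° C, then exposed to compound at 4-5 uM final with 80 nM 7a,25-OHC agonist for 60 min at 37° C. Luminescence read after 60 min detection at 25° C in the dark; values normalized to neutral and stimulator controls and plate-pattern corrected.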

[1] = cell-based luminescence, 7a,25-OHC final assay concentration 80 nM, 60 minutes incubation, read-out: IC50

Sequence of EBI2 (P32249 whole entry): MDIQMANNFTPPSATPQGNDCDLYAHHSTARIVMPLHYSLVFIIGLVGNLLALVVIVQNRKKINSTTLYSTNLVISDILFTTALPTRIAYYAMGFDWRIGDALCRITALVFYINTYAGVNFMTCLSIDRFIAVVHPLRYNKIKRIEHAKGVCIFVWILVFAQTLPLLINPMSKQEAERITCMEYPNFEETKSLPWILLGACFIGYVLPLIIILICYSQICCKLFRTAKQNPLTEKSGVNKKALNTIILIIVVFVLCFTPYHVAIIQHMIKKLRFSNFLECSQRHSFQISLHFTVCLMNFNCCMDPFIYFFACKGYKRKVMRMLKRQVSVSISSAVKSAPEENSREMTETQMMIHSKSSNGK

IC50 [1] [µM] | SMILES | IC50 [µM]
< 0.1 | O=C(c1cc2cc(Cl)ccc2[nH]1)N1CCN(Cc2ccc(C(F)(F)F)cc2)CC1 [Compound C331, 5-chloroindol-2-yl 4-{[4-(trifluoromethyl)phenyl]methyl}piperazinyl ketone] | –
< 0.1 | COc1ccc(CN2CCN(C(=O)/C=C/c3ccccc3)CC2)cc1 [Compound C332, (2E)-1-{4-[(4-methoxyphenyl)methyl]piperazinyl}-3-phenylprop-2-en-1-one] | –
< 0.1 | CC(C)(C)c1ccc(S(=O)(=O)N2CCN(C(=O)/C=C/c3ccc(Cl)c(Cl)c3)CC2)cc1 [Compound C334, (2E)-3-(3,4-dichlorophenyl)-1-(4-{[4-(tert-butyl)phenyl]sulfonyl}piperazinyl)prop-2-en-1-one] | –
< 0.1 | O=C(C#Cc1ccc(Br)cc1)N1CCN(C(=O)c2ccc(F)cc2C(F)(F)F)CC1 [Compound C336, 3-(4-bromophenyl)-1-(4-{[4-fluoro-2-(trifluoromethyl)phenyl]carbonyl}piperazinyl)prop-2-yn-1-one] | –
< 0.1 | CC(C)c1ccc2[nH]c(C(=O)N3CCN(C(c4ccccc4)c4ccccc4)CC3)cc2c1 [Compound C338, 4-(diphenylmethyl)piperazinyl 5-(methylethyl)indol-2-yl ketone] | –
< 0.1 | Cc1ccc2[nH]c(C(=O)N3CCN(Cc4ccc(Cl)cc4)CC3)cc2c1 [Compound C339, 4-[(4-chlorophenyl)methyl]piperazinyl 5-methylindol-2-yl ketone] | –
< 0.1 | O=C(C#Cc1cc(F)cc(F)c1)N1CCN(C(=O)c2ccc(Cl)cc2)CC1 [Compound C343, 3-(3,5-difluorophenyl)-1-{4-[(4-chlorophenyl)carbonyl]piperazinyl}prop-2-yn-1-one] | –
< 0.1 | O=C(/C=C/c1ccccc1)N1CCN(Cc2ccccc2Br)CC1 [Compound C344, (2E)-1-{4-[(2-bromophenyl)methyl]piperazinyl}-3-phenylprop-2-en-1-one] | –
< 0.1 | O=C(c1cc2ccccc2[nH]1)N1CCN(CCc2ccccc2)CC1 [Compound C347, indol-2-yl 4-(phenylethyl)piperazinyl ketone] | –
< 0.1 | O=C(C#Cc1ccc(F)cc1F)N1CCN(C(=O)c2ccc(Cl)cc2)CC1 [Compound C349, 3-(2,4-difluorophenyl)-1-{4-[(4-chlorophenyl)carbonyl]piperazinyl}prop-2-yn-1-one] | –
< 0.1 | O=C(c1ccc2ccccc2n1)N1CCN(C(c2ccccc2)c2ccccc2)CC1 [Compound C351, 4-(diphenylmethyl)piperazinyl 2-quinolyl ketone] | –
< 0.1 | O=C(C#Cc1cccc(Cl)c1)N1CCN(Cc2ccc(C(F)(F)F)cc2)CC1 [Compound C353, 3-(3-chlorophenyl)-1-(4-{[4-(trifluoromethyl)phenyl]methyl}piperazinyl)prop-2-yn-1-one] | –
< 0.1 | O=C(/C=C/c1ccc(Br)cc1)N1CCCN(S(=O)(=O)/C=C/c2ccccc2)CC1 [Compound C355, (2E)-1-{4-[((1E)-2-phenylvinyl)sulfonyl](1,4-diazaperhydroepinyl)}-3-(4-bromophenyl)prop-2-en-1-one] | –
< 0.1 | O=C(C#Cc1ccc(Cl)cc1)N1CCN(Cc2ccc(C(F)(F)F)cc2)CC1 [Compound C356, 3-(4-chlorophenyl)-1-(4-{[4-(trifluoromethyl)phenyl]methyl}piperazinyl)prop-2-yn-1-one] | –
< 0.1 | Cc1cc(F)ccc1OC1CCN(C(=O)c2cc3cc(Cl)ccc3[nH]2)CC1 [Compound C357, 5-chloroindol-2-yl 4-(4-fluoro-2-methylphenoxy)piperidyl ketone] | –
< 0.1 | COC(=O)c1cccc(CN2CCN(C(=O)c3cc4cc(Cl)ccc4[nH]3)CC2)c1 [Compound C358, methyl 3-({4-[(5-chloroindol-2-yl)carbonyl]piperazinyl}methyl)benzoate] | –
0.1 to 0.5 | COC(=O)c1cccc(C(=O)N2CCN(C(=O)c3cc4cc(Cl)ccc4[nH]3)CC2)c1 [Compound C363, methyl 3-({4-[(5-chloroindol-2-yl)carbonyl]piperazinyl}carbonyl)benzoate] | –
< 0.1 | O=C(/C=C/c1ccccc1)N1CCN(Cc2cccc(Cl)c2)CC1 [Compound C365, (2E)-1-{4-[(3-chlorophenyl)methyl]piperazinyl}-3-phenylprop-2-en-1-one] | –
0.1 to 0.5 | O=C(c1ccc(Cl)cc1)N1CCN(C(=O)c2cc3ccc(F)cc3[nH]2)CC1 [Compound C366, 4-[(4-chlorophenyl)carbonyl]piperazinyl 6-fluoroindol-2-yl ketone] | –
< 0.1 | CCCCN1CCN(C(=O)c2cc3cc(Cl)ccc3[nH]2)CC1 [Compound C368, 4-butylpiperazinyl 5-chloroindol-2-yl ketone] | –
< 0.1 | O=C(C#Cc1ccc(Cl)cc1)N1CCN(Cc2ccc(F)cc2)CC1 [Compound C369, 3-(4-chlorophenyl)-1-{4-[(4-fluorophenyl)methyl]piperazinyl}prop-2-yn-1-one] | –
< 0.1 | O=C(c1cc2cc(Br)ccc2[nH]1)N1CCN(Cc2ccc(C(F)(F)F)cc2)CC1 [Compound C371, 5-bromoindol-2-yl 4-{[4-(trifluoromethyl)phenyl]methyl}piperazinyl ketone] | –
< 0.1 | COc1ccc(CN2CCN(C(=O)C#Cc3ccc(Cl)cc3)CC2)cc1 [Compound C372, 3-(4-chlorophenyl)-1-{4-[(4-methoxyphenyl)methyl]piperazinyl}prop-2-yn-1-one] | –
< 0.1 | O=C(/C=C/c1ccccc1)N1CCN(Cc2ccccc2Cl)CC1 [Compound C374, (2E)-1-{4-[(2-chlorophenyl)methyl]piperazinyl}-3-phenylprop-2-en-1-one] | –
0.1 to 0.5 | O=C(c1ccc(C(F)(F)F)cc1)N1CCN(C(=O)c2cc3ccc(Br)cc3[nH]2)CC1 [Compound C375, 6-bromoindol-2-yl 4-{[4-(trifluoromethyl)phenyl]carbonyl}piperazinyl ketone] | –

The remaining lines, values behind:

SMILES | IC50 [1] [µM] | IC50 [µM]
O=C(c1ccc(-c2nnn[nH]2)cc1)N1CCN(C(=O)c2cc3ccc(Br)cc3[nH]2)CC1 [Compound C310, 6-bromoindol-2-yl 4-[(4-(1H-1,2,3,4-tetraazol-5-yl)phenyl)carbonyl]piperazinyl ketone] | < 0.1 | –
S=C(c1cnc2ccccc2c1)N1CCN(C(c2ccccc2)c2ccccc2)CC1 [Compound C311, [4-(diphenylmethyl)piperazinyl]-3-quinolylmethane-1-thione] | < 0.1 | –
CCCCN1CCN(C(=O)/C=C/c2ccccc2)CC1 [Compound C312, (2E)-1-(4-butylpiperazinyl)-3-phenylprop-2-en-1-one] | < 0.1 | –
COc1cccc(S(=O)(=O)N2CCN(C(=O)/C=C/c3ccc(F)cc3)CC2)c1 [Compound C314, (2E)-3-(4-fluorophenyl)-1-{4-[(3-methoxyphenyl)sulfonyl]piperazinyl}prop-2-en-1-one] | < 0.1 | –
O=C(c1cc2cc(Cl)ccc2[nH]1)N1CCC(Oc2ccc(F)cc2)CC1 [Compound C315, 5-chloroindol-2-yl 4-(4-fluorophenoxy)piperidyl ketone] | < 0.1 | –
O=C(C#Cc1cccc(Cl)c1)N1CCN(Cc2ccc(Cl)cc2)CC1 [Compound C316, 3-(3-chlorophenyl)-1-{4-[(4-chlorophenyl)methyl]piperazinyl}prop-2-yn-1-one] | < 0.1 | –
O=C(c1cc2cc(Cl)ccc2[nH]1)N1CCC(Oc2ccc(Cl)cc2)CC1 [Compound C317, 5-chloroindol-2-yl 4-(4-chlorophenoxy)piperidyl ketone] | < 0.1 | –
O=C(c1cc2cc(Cl)ccc2[nH]1)N1CCN(Cc2ccc(F)cc2)CC1 [Compound C319, 5-chloroindol-2-yl 4-[(4-fluorophenyl)methyl]piperazinyl ketone] | < 0.1 | –
O=C(/C=C/c1ccccc1Cl)N1CCN(C(c2ccccc2)c2ccccc2)CC1 [Compound C320, (2E)-1-[4-(diphenylmethyl)piperazinyl]-3-(2-chlorophenyl)prop-2-en-1-one] | < 0.1 | –
Cc1ccc(NC2CCN(C(=O)c3cc4cc(Cl)ccc4[nH]3)CC2)cc1C [Compound C322, 4-[(3,4-dimethylphenyl)amino]piperidyl 5-chloroindol-2-yl ketone] | < 0.1 | –
O=C(/C=C/c1ccc(F)cc1)N1CCN(S(=O)(=O)Cc2ccccc2)CC1 [Compound C323, (2E)-3-(4-fluorophenyl)-1-{4-[benzylsulfonyl]piperazinyl}prop-2-en-1-one] | < 0.1 | –
COC(=O)c1ccc(CN2CCN(C(=O)c3cc4cc(Cl)ccc4[nH]3)CC2)cc1 [Compound C324, methyl 4-({4-[(5-chloroindol-2-yl)carbonyl]piperazinyl}methyl)benzoate] | < 0.1 | –
O=C(c1cc2cc(Cl)ccc2[nH]1)N1CCN(Cc2ccc(-c3ccccc3)cc2)CC1 [Compound C327, 5-chloroindol-2-yl 4-[(4-phenylphenyl)methyl]piperazinyl ketone] | < 0.1 | –
Cc1ccc2[nH]c(C(=O)N3CCN(Cc4ccc(Cl)c(Cl)c4)CC3)cc2c1 [Compound C328, 4-[(3,4-dichlorophenyl)methyl]piperazinyl 5-methylindol-2-yl ketone] | < 0.1 | –
O=C(c1ccc(C(F)(F)F)c(F)c1)N1CCN(C(=O)c2cc3ccc(Br)cc3[nH]2)CC1 [Compound C329, 6-bromoindol-2-yl 4-{[3-fluoro-4-(trifluoromethyl)phenyl]carbonyl}piperazinyl ketone] | < 0.1 | –
N#Cc1ccccc1S(=O)(=O)N1CCN(C(=O)/C=C/c2ccc(F)cc2)CC1 [Compound C341, 2-({4-[(2E)-3-(4-fluorophenyl)prop-2-enoyl]piperazinyl}sulfonyl)benzenecarbonitrile] | < 0.1 | –
O=C(/C=C/c1ccccc1)N1CCN(Cc2ccc(Cl)cc2)CC1 [Compound C354, (2E)-1-{4-[(4-chlorophenyl)methyl]piperazinyl}-3-phenylprop-2-en-1-one] | – | < 0.1
O=C(/C=C/c1ccc(F)cc1)N1CCN(S(=O)(=O)c2cccs2)CC1 [Compound C367, (2E)-3-(4-fluorophenyl)-1-[4-(2-thienylsulfonyl)piperazinyl]prop-2-en-1-one] | < 0.1 | –
